In patent US6849593B1, “Bifidogenic peptides” (Pharis Biotec GmbH, priority 1997, dated 2005):

Tested on: Bifidobacterium bifidum ATCC 29521
Experiment: bifidogenic activity: growth test with bifidobacteria in combination with a growth test with E. coli
Format: cell-based
Conditions: growth of Bifidobacterium bifidum (50% Elliker broth, anaerobic, 37° C., 16 hours) relative to growth of E. coli K12 (3 g/l tryptic soy broth, 16 hours); desalted HPLC fractions from pepsin-treated human milk
Protocol: This object is achieved by peptides having the features of claim 1. […]
For each assay, cultures of E. coli K12 were freshly inoculated in tryptic soy broth (Sigma, Deisenhofen, Germany, order No. T8907) (Difco Manual, 10th ed., p. 1027). […] The photometric absorption of the inoculum was 0.05, measured at 500 nm. The growth of the bacteria under the influence of the peptides was also photometrically determined in an ELISA reader after 16 hours and manually determined by microscopy.
For each assay, cultures of Bifidobacterium bifidum ATCC 29521 were freshly inoculated in Elliker broth (Difco, Detroit, USA) (tryptone 20 g, yeast extract 5 g, gelatin 2.5 g, dextrose 5 g, lactose 5 g, saccharose 5 g, sodium chloride 4 g, sodium acetate 1.5 g, ascorbic acid 0.5 g). […] The photometric absorption of the inoculum was 0.05, measured at 550 nm. The growth of the bacteria under the influence of the peptides was also photometrically determined in an ELISA reader after 16 hours and manually determined by microscopy. […]

GRRRRSVQWCAVSQPEATKCFQWQRNMRKVRGPPVSCIKRDSPICCIQA (GRRRSVQWCAVSQPEATKCFQWQRNMRKVRGPPVSCIKRDSPIQCIQA) [neutrophile lactoferrin-20-67, bifidogenic component of fraction 10, peptide isolated from pepsin-treated human milk]
bifidogenic activity: bifidogenic

YQRRPAIAINNPYVPRTYYANPAVVRPHAQIPQRQYLPNSHPPTVVRRPLPSF (YQRRPAIAINNPYVPRTYYANPAVVRPHAQIPQRQYLPNSHPPTVVRRPNLHPSF) [casein K-63-117, pure bifidogenic component of fraction 9, peptide isolated from pepsin-treated human milk]
bifidogenic activity: bifidogenic
